Numbered stars: 1 amine (or outer) side, 2 acyl side, 3 side chain; on linkers, the order of the positions; unused ones are H or OH. Bridge positions count the residues as written; N and C are the ends. Square brackets hold non-standard residues; d marks the D form. Peptide text beside a SMILES is read from it. * marks the point of attachment. X1 = N=C(N)NCCC[C@H]1C(=O)N[C@@H](C(N)=O)CN1*; Glutaryl = O=C(CCCC(=O)[*:2])[*:1]; Suc = O=C(CCC(=O)[*:2])[*:1]; dNle = CCCC[C@@H](N)C(=O)O; Heptanoyl = CCCCCCC(=O)*; Nle = CCCC[C@H](N)C(=O)O; Orn = NCCC[C@H](N)C(=O)O; Dab = NCC[C@H](N)C(=O)O; Dap = NC[C@H](N)C(=O)O
Key:
[1] = target: T1, human natriuratic peptide receptor A (NPRA) (Homo sapiens, UniProt P16066); test: Competitive inhibition binding assay, [125I]-ANP, membrane homogenates from HEK-hNPRA cells; details: for Percent Inhibition: inhibition of [125I]-ANP binding to HEK-hNPRA membranes, construct concentration not stated; for Ki: [125I]-ANP competition, HEK-hNPRA membranes
T1 sequence (P16066 33-1061): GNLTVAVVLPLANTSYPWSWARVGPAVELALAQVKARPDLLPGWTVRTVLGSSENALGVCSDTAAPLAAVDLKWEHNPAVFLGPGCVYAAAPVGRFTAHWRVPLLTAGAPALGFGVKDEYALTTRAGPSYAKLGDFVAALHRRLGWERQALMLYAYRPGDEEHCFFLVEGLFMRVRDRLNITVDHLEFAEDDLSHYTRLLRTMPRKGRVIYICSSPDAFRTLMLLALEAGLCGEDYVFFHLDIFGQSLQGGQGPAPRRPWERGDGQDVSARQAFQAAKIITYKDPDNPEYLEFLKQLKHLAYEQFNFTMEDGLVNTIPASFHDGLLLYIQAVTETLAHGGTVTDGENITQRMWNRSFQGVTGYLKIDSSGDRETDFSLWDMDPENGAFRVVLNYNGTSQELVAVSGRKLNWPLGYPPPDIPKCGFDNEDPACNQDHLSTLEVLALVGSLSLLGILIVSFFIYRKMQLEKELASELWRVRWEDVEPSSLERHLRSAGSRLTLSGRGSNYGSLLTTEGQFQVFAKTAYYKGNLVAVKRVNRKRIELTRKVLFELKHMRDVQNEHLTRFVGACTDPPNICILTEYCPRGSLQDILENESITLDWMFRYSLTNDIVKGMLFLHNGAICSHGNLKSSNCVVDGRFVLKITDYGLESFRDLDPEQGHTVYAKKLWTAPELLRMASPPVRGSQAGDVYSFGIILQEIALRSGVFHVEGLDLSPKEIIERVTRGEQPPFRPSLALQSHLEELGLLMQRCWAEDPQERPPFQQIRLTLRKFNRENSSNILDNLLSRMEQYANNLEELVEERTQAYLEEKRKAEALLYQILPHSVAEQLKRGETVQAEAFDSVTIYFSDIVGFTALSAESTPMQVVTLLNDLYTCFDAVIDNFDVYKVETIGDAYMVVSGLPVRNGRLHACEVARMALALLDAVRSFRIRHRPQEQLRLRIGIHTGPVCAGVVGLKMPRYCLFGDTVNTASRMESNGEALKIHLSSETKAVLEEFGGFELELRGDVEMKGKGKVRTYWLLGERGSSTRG
Excerpt: (§1) A cDNA clone that encodes for human natriuratic peptide receptor A (NPRA) was purchased from Bio S&T Inc. (Montreal, Quebec). The cDNA clone was inserted into the mammalian expression vector pcDNA3.1 (Invitrogen) and transfected into HEK-293 cells. Stable clones were selected by culture of cells in the presence of G418 sulfate. Expression of NPRA was examined by binding of [^125I]-atrial natriuretic peptide ([^125I]-ANP) to membrane homogenates prepared from clonal cell lines. HEK-hNPRA cells were maintained in culture at 37° C. in 5% CO2 in Dulbecco's Modified Eagle's Medium (DMEM) supplemented with 10% FBS, G418 sulfate (300 μg/mL) sodium glutamate (0.29 mg/mL), penicillin (100 units/mL) and streptomycin (100 ug/mL).
A competitive inhibition binding assay was performed using crude membrane homogenates prepared from HEK-hNPRA cells. To prepare membrane homogenates, cells were rinsed with phosphate-buffered saline and incubated for 15 minutes at 4° C. in hypotonic lysis buffer (10 mM Tris, pH 7.4+5 mM EDTA). Cells were transferred from plates to polypropylene tubes and homogenized. Homogenates were centrifuged at 25,000×g for 20 minutes. Pellets were resuspended in buffer consisting of 50 mM Tris (pH 7.4) and 1 mM EDTA, homogenized and centrifuged at 25,000×g for 20 minutes. Pellets were resuspended in buffer consisting of 100 mM Tris (pH 7.4) and 10 mM MgCl2 and stored at −80° C. until needed. On the day of an assay, homogenates were thawed and homogenized. Binding of [^125I]-ANP was carried out in buffer containing 25 mM Hepes (pH 7.4), 100 mM NaCl, 2 mM CaCl2, 5 mM MgCl2, 0.1% BSA and 1 mM 1,10-phenanthroline. Homogenates (1-10 μg protein/well) were incubated with [^125I]-ANP (25-30 pM) and increasing concentrations of competing ligands in Millipore filter plates for 120 minutes at 4° C. Assays were stopped by addition of cold wash buffer (phosphate-buffered saline) followed by filtration using a vacuum manifold. Bound radioactivity was determined using a gamma counter. Non-specific binding was defined by binding of [I^125]-hANP to non-transfected HEK293 membranes. Data were analyzed using GraphPad Prism® curve-fitting software.

hNPR-A = target: T2, hNPR-A (Homo sapiens, UniProt P16066); test: Accumulation of intracellular cGMP in HEK-293 cells that express recombinant hNPR-A; type: cell-based; details: HEK-hNPRA cells
T2 sequence (P16066 33-1061): T1 sequence (P16066 33-1061)
Excerpt: as §1
Functional evaluation of constructs was performed by measuring the accumulation of intracellular cGMP in HEK-293 cells that express recombinant hNPR-A. HEK-NPRA cells were harvested by washing and centrifugation in Cell Dissociation Buffer (Gibco, Life Technologies). Pelleted cells were resuspended in Hank's Balanced Salt Solution (HBSS) containing 10 mM Hepes (pH 7.4), 5 mM MgCl2, […], 1 mM 1,10-phenanthroline and BSA (0.5 mg/mL). Following centrifugation, cells were resuspended in the above buffer supplemented with 0.5 mM 3-isobutyl-1-methylxanthine (IBMX). Cells (˜2×10^5/well) were added to each well of a 96-well plate and incubated for 15 minutes at 37° C. Following the pre-incubation period, cells were incubated for an additional 15 minutes in the presence of increasing concentrations of constructs. The reaction was terminated by lysis of the cells with temperature shock. The reaction plate was incubated in a dry ice/ethanol bath for 15 minutes followed by incubation at 90° C. for 10 minutes. Accumulation of cGMP was measured using the cGMP Flashplate RIA (Perkin-Elmer). Data analysis and EC50 values were determined by using nonlinear regression analysis with GraphPad Prism® software.

[2] = Resistance to degradation by human neutral endopeptidase; type: in vitro ADME; details: isolated enzyme neprilysin; 50 μM concentration of human neutral endopeptidase; two hours; read-out: percent of construct remained after incubation for two hours
Protocol: (§2) In other tests, resistance to degradation by a 50 μM concentration of human neutral endopeptidase was determined for selected constructs.

neutral endopeptidase = test: as above; type: in vitro ADME; details: human neutral endopeptidase (isolated enzyme); 50 μM concentration of human neutral endopeptidase; two hours; read-out: percent of construct remained after incubation for two hours
Protocol: as §2

[3] = in vivo
Protocol: as §2

Compound | Percent Inhibition [1] [%] | EC50 (hNPR-A) [nM] | remaining at 2 h [2] [%] | remaining at 2 h (neutral endopeptidase) [%] | Ki [1] [nM] | half-life [3] [min]
CCCCCCC(=O)N[C@H]1CNC(=O)CCCC(=O)NCCC[C@@H](C(=O)N[C@@H](Cc2ccc(O)cc2)C(=O)N2C[C@H](C(N)=O)NC(=O)[C@@H]2CCCNC(=N)N)NC(=O)[C@H](CO)NC(=O)[C@H]([C@@H](C)CC)NC(=O)[C@H](CCCNC(=N)N)NC(=O)[C@H](CC(=O)O)NC(=O)[C@H](CCCC)NC(=O)[C@H](CCCNC(=N)N)NC(=O)CNC(=O)[C@@H](C)NC(=O)[C@H](Cc2ccccc2)NC(=O)[C@@H](Cc2c[nH]cn2)NC1=O [1-31] (Heptanoyl-[Dap][dH]F[dA]GR[Nle]DRIS[Orn]Y-X1; linker 1-12 via Glutaryl) | 68 | 10 | – | – | – | –
CCCCCCC(=O)N[C@H]1CNC(=O)CCC(=O)NC[C@@H](C(=O)N[C@@H](Cc2ccc(O)cc2)C(=O)N2C[C@H](C(N)=O)NC(=O)[C@@H]2CCCNC(=N)N)NC(=O)[C@H](CO)NC(=O)[C@H]([C@@H](C)CC)NC(=O)[C@H](CCCNC(=N)N)NC(=O)[C@H](CC(=O)O)NC(=O)[C@H](CCCC)NC(=O)[C@H](CCCNC(=N)N)NC(=O)CNC(=O)[C@@H](C)NC(=O)[C@H](Cc2ccccc2)NC(=O)[C@@H](Cc2c[nH]cn2)NC1=O [1-37] (Heptanoyl-[Dap][dH]F[dA]GR[Nle]DRIS[Dap]Y-X1; linker 1-12 via Suc) | 100 | 0.7 | – | – | – | –
CCCCCCC(=O)NCC[C@@H]1NC(=O)CC[C@@H](C(=O)N[C@@H](Cc2ccc(O)cc2)C(=O)N2C[C@H](C(N)=O)NC(=O)[C@@H]2CCCNC(=N)N)NC(=O)[C@H](CO)NC(=O)[C@H]([C@@H](C)CC)NC(=O)[C@H](CCCNC(=N)N)NC(=O)[C@H](CC(=O)O)NC(=O)[C@@H](CCCC)NC(=O)[C@H](CCCNC(=N)N)NC(=O)CNC(=O)[C@@H](C)NC(=O)[C@H](Cc2ccccc2)NC(=O)[C@H](Cc2c[nH]cn2)NC1=O [3-75] ([Dab](Heptanoyl)HF[dA]GR[dNle]DRISEY-X1; lactam N-12) | 98 | 5 | 97 | – | – | –
CCCCCCC(=O)NC[C@@H]1NC(=O)CC[C@@H](C(=O)N[C@@H](Cc2ccc(O)cc2)C(=O)N2C[C@H](C(N)=O)NC(=O)[C@@H]2CCCNC(=N)N)NC(=O)[C@H](CO)NC(=O)[C@H]([C@@H](C)CC)NC(=O)[C@H](CCCNC(=N)N)NC(=O)[C@H](CC(=O)O)NC(=O)[C@@H](CCCC)NC(=O)[C@H](CCCNC(=N)N)NC(=O)CNC(=O)[C@@H](C)NC(=O)[C@H](Cc2ccccc2)NC(=O)[C@H](Cc2c[nH]cn2)NC1=O [3-76] ([Dap](Heptanoyl)HF[dA]GR[dNle]DRISEY-X1; lactam N-12) | 93 | 10 | – | 84 | – | –
CCCCCCC(=O)N[C@H]1CC(=O)NCC[C@@H](C(=O)N[C@@H](Cc2ccc(O)cc2)C(=O)N2C[C@H](C(N)=O)NC(=O)[C@@H]2CCCNC(=N)N)NC(=O)[C@H](CO)NC(=O)[C@H]([C@@H](C)CC)NC(=O)[C@H](CCCNC(=N)N)NC(=O)[C@H](CC(=O)O)NC(=O)[C@H](CCCC)NC(=O)[C@H](CCCNC(=N)N)NC(=O)CNC(=O)CNC(=O)[C@H](Cc2ccccc2)NC(=O)[C@H](Cc2c[nH]cn2)NC1=O [4-137] (Heptanoyl-DHFGGR[Nle]DRIS[Dab]Y-X1; lactam 1-12) | 78 | 0.25 | – | – | – | –
CCCC[C@@H]1NC(=O)[C@H](CCCNC(=N)N)NC(=O)CNC(=O)CNC(=O)[C@H](Cc2ccccc2)NC(=O)[C@H](Cc2c[nH]cn2)NC(=O)[C@@H](N)CC(=O)NCC[C@@H](C(=O)N[C@@H](Cc2ccc(O)cc2)C(=O)N2C[C@H](C(N)=O)NC(=O)[C@@H]2CCCNC(=N)N)NC(=O)[C@H](CO)NC(=O)[C@H]([C@@H](C)CC)NC(=O)[C@H](CCCNC(=N)N)NC(=O)[C@H](CC(=O)O)NC1=O [4-143] (H-DHFGGR[Nle]DRIS[Dab]Y-X1; lactam 1-12) | 69 | 0.2 | – | – | – | –

Next, values leading:

Percent Inhibition [1] [%] | EC50 (hNPR-A) [nM] | remaining at 2 h [2] [%] | remaining at 2 h (neutral endopeptidase) [%] | Ki [1] [nM] | half-life [3] [min] | Compound
– | 11 | 95 | – | 40 | – | CCCC[C@H]1NC(=O)[C@H](CCCNC(=N)N)NC(=O)CNC(=O)[C@@H](C)NC(=O)[C@H](Cc2ccccc2)NC(=O)[C@H](Cc2c[nH]cn2)NC(=O)[C@@H](NC(=O)[C@@H](C)N)CCC(=O)NCC[C@@H](C(=O)N[C@@H](Cc2ccc(O)cc2)C(=O)N2C[C@H](C(N)=O)NC(=O)[C@@H]2CCCNC(=N)N)NC(=O)[C@H](CO)NC(=O)[C@H]([C@@H](C)CC)NC(=O)[C@H](CCCNC(=N)N)NC(=O)[C@H](CC(=O)O)NC1=O [4-90] (H-[dA]EHF[dA]GR[dNle]DRIS[Dab]Y-X1; lactam 2-13)
– | 0.25 | – | – | 0.6 | 6.6 | CCCC[C@H]1NC(=O)[C@H](CCCNC(=N)N)NC(=O)CNC(=O)CNC(=O)[C@H](Cc2ccccc2)NC(=O)[C@H](Cc2c[nH]cn2)NC(=O)[C@@H](NC(=O)[C@@H](C)N)CC(=O)NCC[C@@H](C(=O)N[C@@H](Cc2ccc(O)cc2)C(=O)N2C[C@H](C(N)=O)NC(=O)[C@@H]2CCCNC(=N)N)NC(=O)[C@H](CO)NC(=O)[C@H]([C@@H](C)CC)NC(=O)[C@H](CCCNC(=N)N)NC(=O)[C@H](CC(=O)O)NC1=O [4-98] (H-[dA]DHFGGR[dNle]DRIS[Dab]Y-X1; lactam 2-13)
100 | 4 | 89 | – | – | – | CCCCCCC(=O)N[C@H]1CC(=O)NCC[C@@H](C(=O)N[C@@H](Cc2ccc(O)cc2)C(=O)N2C[C@H](C(N)=O)NC(=O)[C@@H]2CCCNC(=N)N)NC(=O)[C@H](CO)NC(=O)[C@H]([C@@H](C)CC)NC(=O)[C@H](CCCNC(=N)N)NC(=O)[C@H](CC(=O)O)NC(=O)[C@@H](CCCC)NC(=O)[C@H](CCCNC(=N)N)NC(=O)CNC(=O)[C@@H](C)NC(=O)[C@H](Cc2ccccc2)NC(=O)[C@H](Cc2c[nH]cn2)NC1=O [4-138] (Heptanoyl-DHF[dA]GR[dNle]DRIS[Dab]Y-X1; lactam 1-12)

— patent US8580746B2, “Amide linkage cyclic natriuretic peptide constructs” (Palatin Technologies, Inc., priority 2006, dated 2013)
